Measured values from patent publication US20190350955A1, “METHODS AND PHARMACEUTICAL COMPOSITIONS FOR THE TREATMENT OF CARDIOMYOPATHIES” (INSERM (Institut National de la Sante et de la Recherche …, priority 2016, published 2019).

Experiments:
SRF^HKO mice = experiment: RT-qPCR gene expression in SRF HKO heart; assay type: in vivo, mouse
Text: Transgenic mice. All experiments with animals conformed to the Directive 2010/63/EU of the European Parliament and were approved by the ethics committee Charles Darvin #5 (agreement 00369.01). SRF^HKO mice bear the tamoxifen-inducible α-MHC-MerCrMer transgene and the Siffloxed allele (Sf/Sf) as described previously (Parlakian et al. (2005). Temporally controlled onset of dilated cardiomyopathy through disruption of the SRF gene in adult heart. Journal 112, 2930-2939; Tritsch et al. (2013). An SRF/miR-1 axis regulates NCX1 and Annexin A5 protein levels in the normal and failing heart. Journal 98, 372-380). Transgenic mice have been bred for more than 20 generations in C57BL/6N background. The mice were housed in standard animal facility (CEF. Hôpital Pitié Salpétrière, agreement A-75-13-15, 75013 Paris), under a 12-h dark/light cycle. Tamoxifen (Sigma T5648) was administrated by i.p. injection at a dose of 0.7 mg diluted in 100 μl peanut oil at day (D) 0, D1 and D2. (Sf/Sf) littermates injected with tamoxifen at the same time than mutant were used as controls.
Nicotinamide and nicotinamide riboside i.p. administration. Nicotinamide was diluted in saline at 300 mM. Nicotinamide riboside (NR) bromide salt stock solution (1M) was in 10 mM citric acid pH 6.0. For injection 3 volumes of NR stock solution was mixed extemporaneously with 7 volumes of PBS to obtain a 300 mM injectable solution at pH 7.2. Mice were injected daily at a dose of 1 μmole/g body weight.
SRF^HKO and control (Sf/Sf) mice were administered either rodent maintenance SAFE A04 diet containing 3.10% crude fat. 16.10% crude proteins. 26% starch and 1.9% sugar (Scientific Animal Food Engineering, Paris, France) or SAFE # A04 diet supplemented with NR. NR was provided by Chromadex under brand name NIAGEN (Irvine Calif. USA). The soft pellets were manually prepared every 5 days by mixing 1.65 g of NR into 500 g of powdered SAFE A04 diet and 235 ml of water to reach 2.24 mg of NR/g (wet weight). Control diet was prepared in the same way omitting NR. Mice had ad libitum access to food and water. Mice (average body weight 31.3±0.82 g, no difference between groups) consumed an average of 6 g of soft food per day, reaching a daily intake of 450 mg NR/kg. No difference in food intake was observed between SRF^HKO and control mice.
cDNAs were reverse transcribed from RNA (1.5 μg) extracted in TRIzol (Thermofisher) from cell cultures and tissues using the Superscript II Reverse Transcriptase (Life Technologies). Quantitative PCR was carried out on a Light Cycler 480 (Roche Diagnostics) using Fast Start SYBR Green Master (Roche Diagnostics). Quantification of gene expression was calculated as R=2^ΔCt(Ref Cp−target Cp), with Hprt used as a as reference. Primers were designed using the NCBI Primer-BLAST software. Primer sequences are available on request.

TAC mice = experiment: Myocardial NAD+ levels after TAC; assay type: in vivo, mouse; conditions: 6 weeks after TAC, NR treated TAC group vs non treated CD TAC group
Description: Transverse aorta constriction was performed in 2 month-old male mice under anesthesia (ketamine 100 mg/kg, xylazin 16 mg/kg). Skin was opened above the sternum and the upper part of the sternum was cut on a length of 2 mm allowing the mouse to breath without the need of a ventilator. A surgical suture was passed under the aortic cross between the right brachiocephalic (innominate) artery and left common carotid artery and a 27-½ gauge blunt needle was placed parallel to the wall of the aortic cross as a calibrator. Two loose knots were tied around the aortic cross and the needle. The first knot was quickly tied against the needle, followed by the second and the needle was promptly removed in order to produce a constriction of 0.4 mm in diameter. In sham, mice the procedure was the same except for the constriction of the aorta. NR treatment was started 2 days after the TAC or SHAM surgery.
Tissue frozen powder was resuspended in 75% ethanol, 25% HEPES 10 mM pH 7.1, buffer (20 μl/mg of tissue). Extracts were warmed 5 min at 80° C., then directly cold on ice and centrifuge 5 min at 16 000 g. Tissues extracts were normalized on the weight of tissue used for extraction. […] After adjustment of dilution factors, NADH levels were calculated by substracting the NAD^+ concentration to the non-heated ethanolic extract values: NADH=NADt (non heated)−NAD^+ (heated). […]

In the case of NC(=O)c1ccc[n+]([C@@H]2O[C@H](CO)[C@@H](O)[C@H]2O)c1 [NR, nicotinamide riboside], the “expression level of the NADPH oxidase gene Nox4” value (SRF^HKO mice; NR diet, heart of SRF HKO mice) is reported as “increased”, the “expression level of the Nfel2 gene encoding NRF2 and its target gene metallothionein 2” value (SRF^HKO mice; NR diet, heart of SRF HKO mice) is reported as “increased” and the “expression level of G6pdx” value (SRF^HKO mice; SRF HKO mice under the NR diet) is reported as “maintained at higher level than in controls”. For the same molecule, the “Srf and Nmrk2 expression levels” value (SRF^HKO mice; i.p. administration from D8 to D15) was “not changed” and the “myocardial NAD+ levels” value (TAC mice) was “significantly higher”.
